Data on 2 compounds can be found in patent US5561133A, “Thymidylate synthase inhibiting quinazolinones” (British Technology Group Limited, priority 1992, dated 1996).

In general, IC50 refers to the concentration that inhibits the measured activity by half.

Data set [1] relates to human breast,ovarian and liver cancer. The note with it: clinical, humans; cited from earlier work.
The conditions of data set [2]: particularly liver and kidneys; cited from earlier work.
The test system of data set [3] is L1210 cell line. Description: inhibition of growth of the leukaemia cell line L1210 in cell culture. It is filed as cell-based. The following applies: Mus musculus, read-out: IC50 against the L1210 cell line. The source says: (b) An assay which determines the ability of a test compound to inhibit the growth of the leukaemia cell line L1210 in cell culture. The test may be similar to that described in UK Patent Specification No. 2065653B; and […]

Data set [4] has as its system MCF-7 cell line. Description: inhibition of growth of the human breast cancer cell line MCF-7 in cell culture. It counts as cell-based. The note with it: MCF7, MCF-7 cell culture, read-out: IC50 against the MCF-7 cell line. The source says:
(c) An assay which determines the ability of a test compound to inhibit the growth of the human breast cancer cell line MCF-7 in cell culture. The test may be similar to that described by Lippman et al (Cancer Res., 1976, 36, 4595).

For the compound `C#CCN(Cc1ccc2nc(N)[nH]c(=O)c2c1)c1ccc(C(=O)N[C@@H](CCC(=O)O)C(=O)O)cc1` [CB3717], the “activity against human breast, ovarian and liver cancer” value in data set [1] was “promising activity”. The toxicity in humans entry in data set [2] was “symptoms of toxicity in humans, particularly in relation to the liver and kidneys”.
With `C#CCN(Cc1ccc2nc(C)[nH]c(=O)c2c1)c1ccc(C(=O)N[C@@H](CCC(=O)N(C)[C@@H](CCC(=O)O)C(=O)O)C(=O)O)cc1` [Example 1, N-p-[N-(3,4-Dihydro-2-methyl-4-oxoquinazolin-6-ylmethyl)-N-(prop-2-ynyl)amino]benzoyl-L-γ-glutamyl-N-methyl-L-glutamic acid], the IC50 in data set [3] came out at 0.24 µM; in data set [4] it was 0.3 µM.
